How the values were obtained:
CYP1A1 and CYP2B1 = experiment: Cytochrome P450 activity of bilayer construct after induction (7-ethoxy/7-pentoxy resorufin); assay type: cell-based, human; conditions: 24 h exposure, then 7-ethoxy or 7-pentoxy resorufin for 30 min; FIG. 8
Experimental: The effects of polycyclic carcinogens on cytochrome P450 activity in the artificial tissue constructs was also analyzed. Cytochrome P450 proteins are involved in the metabolism of many exogenous and endogenous chemicals, including drugs, steroids, and toxins. Cytochrome P450 induction is indicative of chemical metabolism. Cellular P450 enzyme activity of CYP1A1 & CYP2B1 families was studied. The bilayer constructs were prepared from biopsy samples of three different patients.
The mucosal construct was exposed to either 3-methylcholantherine and β-nitrophenol (FIG. 8) for 24 h, followed by 7-ethoxy resorufin (5-15 μM) or 7-pentoxy resorufin (5-15 μM) addition (for 30 min) to quantify CYP 1A1 and CYP 2B1 activity, respectively. A β-glucuronidase and arylsulfatase enzyme cocktail was then added to the samples and they were incubated for 2 h at 37° C. Fluorometric absorbance was then measured. A standard curve was prepared using resorufin to quantify the P450 activity. 3-Methylcholanthere and β-nitrophenol are known environmental carcinogens found in cigarette smoke and in airborne industrial byproducts.

[1] = system: alveolar artificial tissue construct cells; experiment: WST-1 cellular (mitochondrial) activity of treated construct cells; assay type: cell-based, human; conditions: stated in the WST-1 paragraph; 24-h treatments
Experimental: Cellular uptake of WST-1 was used to determine the mitochondrial activity of live cells. A spectroscopic reading of the collected/metabolized tetrazolium salt was performed to compare the cellular activity of hormone or bacterial particle treated cells to the non-treated control cells after 24-h treatments.

[2] = system: bilayer mucosal construct (primary human alveolar epithelial and endothelial cells); experiment: Cytokine production by bilayer alveolar mucosal construct (BioPlex/Luminex 22-plex); assay type: cell-based; conditions: corticosteroid addition for 24 h vs control; FIG. 7
Experimental: Immunosuppressant effects on the cultured mucosal construct were tested by the addition of, for example, dexamethasone (0.5-0.1 μM) and hydrocortisone (5-10 μM) for 24 h. The effect of, for example, diesel particles (0.01-0.2 mg/mL) and urban dust (0.01-0.2 mg/mL) exposure was also studied in the alveolar tissue. NIST standards Diesel Particulate Matter (SRM 2975), and Urban Dust (SRM 1649a), containing both organic and inorganic components, were used as environmental irritants (FIG. 3). A BioPlex 22-Plex™ cytokine kit (Upstate) was used to quantify the cytokine levels in the collected media.
The cytokine profile of the bilayer construct prepared in a 0.33 cm^2 area Transwell™ cell culture device was compared with the alveolar epithelial cells cultured in T-25 flasks. Controls for each experiment with or without the various irritant treatments were also included in the experimental design.
The effects of immunosuppressant hormonal treatment (dexamethasone and hydrocortisone) and exposure to bacterial particles (E. coli and Staphylococcus aureus) on respiratory cells were examined by quantifying cytokine production by the mucosal tissue. […]
Using Luminex™ immunoassay technology, we simultaneously quantified the 22 cytokine and chemokines in the collected treatment media. […]

O=c1cc(-c2ccccc2)oc2ccc3ccccc3c12 [BNF, β-napthophenol]
p450 (CYP1A1 and CYP2B1) activation of construct cells (CYP1A1 and CYP2B1): less activated
activation of alveolar artificial tissue construct cells [1]: less activated

C[C@]12CCC(=O)C=C1CC[C@@H]1[C@@H]2[C@@H](O)C[C@@]2(C)[C@H]1CC[C@]2(O)C(=O)CO [hydrocortisone]
cytokine production by the native cells of the bilayer mucosal construct [2]: significant decrease

Cc1ccc2cc3c(ccc4ccccc43)c3c2c1CC3 [3-methylcholanthere]
p450 (CYP1A1 and CYP2B1) activation of construct cells (CYP1A1 and CYP2B1): activated
activation of alveolar artificial tissue construct cells [1]: activated

Source: US9566250B2, “Artificial tissue constructs comprising alveolar cells and methods for using the same” (SANOFI PASTEUR VAXDESIGN CORPORATION, priority 2007, dated 2017)
